Laboratory results as given in patent US9469650B2, “Melampomagnolide B derivatives” (BOARD OF TRUSTEES OF THE UNIVERSITY OF ARKANSAS, priority 2013, dated 2016).

Columns and labels:
SNB-19 = experiment: panel of 60 human tumor cell lines, growth inhibition (CNS Cancer); conditions: SNB-19
SF-295 = experiment: as above; conditions: SF-295
SNB-75 = experiment: as above; conditions: SNB-75
A498 = experiment: panel of 60 human tumor cell lines, growth inhibition (Renal Cancer); conditions: A498
OVCAR-3 = experiment: panel of 60 human tumor cell lines, growth inhibition (Ovarian Cancer); conditions: OVCAR-3
SK-MEL-28 = experiment: panel of 60 human tumor cell lines, growth inhibition (Melanoma); conditions: SK-MEL-28
UACC-62 = experiment: as above; conditions: UACC-62
NCI-H322M = experiment: panel of 60 human tumor cell lines, growth inhibition (Non-Small Cell Lung Cancer)
A549/ATCC = experiment: as above; conditions: A549/ATCC
M14 = experiment: panel of 60 human tumor cell lines, growth inhibition (Melanoma); conditions: M14
SR = experiment: panel of 60 human tumor cell lines, growth inhibition (Leukemia)
TK-10 = experiment: panel of 60 human tumor cell lines, growth inhibition (Renal Cancer); conditions: TK-10
HT29 = experiment: panel of 60 human tumor cell lines, growth inhibition (Colon Cancer); conditions: HT29
NCI-H23 = experiment: panel of 60 human tumor cell lines, growth inhibition (Non-Small Cell Lung Cancer); conditions: NCI-H23
PC-3 = experiment: panel of 60 human tumor cell lines, growth inhibition (Prostate Cancer); conditions: PC-3
MDA-MB-468 = experiment: panel of 60 human tumor cell lines, growth inhibition (Breast Cancer); conditions: MDA-MB-468
UACC-257 = experiment: panel of 60 human tumor cell lines, growth inhibition (Melanoma); conditions: UACC-257
U251 = experiment: panel of 60 human tumor cell lines, growth inhibition (CNS Cancer); conditions: U251

C=C1C(=O)O[C@H]2[C@H]1CC/C(COC(=O)N1CCC(F)(F)CC1)=C\CC[C@@]1(C)O[C@@H]21 [JVM 2-66]
GI50 (SNB-19): 12800 nM | TGI (SNB-19): 2.84E−5 | Percent Growth (SNB-19; Log10 Concentration −4.0): −79% | Percent Growth (SNB-19; Log10 Concentration −5.0): 66% | Percent Growth (SNB-19; Log10 Concentration −6.0): 89% | Percent Growth (SNB-19; Log10 Concentration −7.0): 91% | Percent Growth (SNB-19; Log10 Concentration −8.0): 93% | GI50 (SF-295): 12000 nM | TGI (SF-295): 2.49E−5 | Percent Growth (SF-295; Log10 Concentration −4.0): −96% | Percent Growth (SF-295; Log10 Concentration −5.0): 63% | Percent Growth (SF-295; Log10 Concentration −6.0): 91% | Percent Growth (SF-295; Log10 Concentration −7.0): 91% | Percent Growth (SF-295; Log10 Concentration −8.0): 95% | GI50 (SNB-75): 6130 nM | TGI (SNB-75): 2.03E−5 | Percent Growth (SNB-75; Log10 Concentration −4.0): −95% | Percent Growth (SNB-75; Log10 Concentration −5.0): 42% | Percent Growth (SNB-75; Log10 Concentration −6.0): 79% | Percent Growth (SNB-75; Log10 Concentration −7.0): 75% | Percent Growth (SNB-75; Log10 Concentration −8.0): 87% | GI50 (A498): 1590 nM | TGI (A498): 6.87E−6 | Percent Growth (A498; Log10 Concentration −4.0): −93% | Percent Growth (A498; Log10 Concentration −5.0): −13% | Percent Growth (A498; Log10 Concentration −6.0): 66% | Percent Growth (A498; Log10 Concentration −7.0): 73% | Percent Growth (A498; Log10 Concentration −8.0): 84% | GI50 (OVCAR-3): 1690 nM | TGI (OVCAR-3): 4.03E−6 | Percent Growth (OVCAR-3; Log10 Concentration −4.0): −99% | Percent Growth (OVCAR-3; Log10 Concentration −5.0): −52% | Percent Growth (OVCAR-3; Log10 Concentration −6.0): 80% | Percent Growth (OVCAR-3; Log10 Concentration −7.0): 95% | Percent Growth (OVCAR-3; Log10 Concentration −8.0): 101% | GI50 (SK-MEL-28): 2510 nM | TGI (SK-MEL-28): 7.42E−6 | Percent Growth (SK-MEL-28; Log10 Concentration −4.0): −84% | Percent Growth (SK-MEL-28; Log10 Concentration −5.0): −14% | Percent Growth (SK-MEL-28; Log10 Concentration −6.0): 92% | Percent Growth (SK-MEL-28; Log10 Concentration −7.0): 94% | Percent Growth (SK-MEL-28; Log10 Concentration −8.0): 102% | GI50 (UACC-62): 2110 nM | TGI (UACC-62): 6.00E−6 | Percent Growth (UACC-62; Log10 Concentration −4.0): −94% | Percent Growth (UACC-62; Log10 Concentration −5.0): −24% | Percent Growth (UACC-62; Log10 Concentration −6.0): 86% | Percent Growth (UACC-62; Log10 Concentration −7.0): 94% | Percent Growth (UACC-62; Log10 Concentration −8.0): 97% | GI50 (NCI-H322M): 13000 nM | TGI (NCI-H322M): 2.66E−5 | Percent Growth (NCI-H322M; Log10 Concentration −4.0): −92% | Percent Growth (NCI-H322M; Log10 Concentration −5.0): 68% | Percent Growth (NCI-H322M; Log10 Concentration −6.0): 102% | Percent Growth (NCI-H322M; Log10 Concentration −7.0): 99% | Percent Growth (NCI-H322M; Log10 Concentration −8.0): 96% | GI50 (A549/ATCC): 11300 nM | TGI (A549/ATCC): 2.74E−5 | Percent Growth (A549/ATCC; Log10 Concentration −4.0): −73% | Percent Growth (A549/ATCC; Log10 Concentration −5.0): 57% | Percent Growth (A549/ATCC; Log10 Concentration −6.0): 93% | Percent Growth (A549/ATCC; Log10 Concentration −7.0): 97% | Percent Growth (A549/ATCC; Log10 Concentration −8.0): 98% | Percent Growth (M14; Log10 Concentration −4.0): −85% | Percent Growth (M14; Log10 Concentration −5.0): 8% | Percent Growth (M14; Log10 Concentration −6.0): 85% | Percent Growth (M14; Log10 Concentration −7.0): 87% | Percent Growth (M14; Log10 Concentration −8.0): 96% | GI50 (SR): 1380 nM | TGI (SR): 7.24E−6 | Percent Growth (SR; Log10 Concentration −4.0): −38% | Percent Growth (SR; Log10 Concentration −5.0): −10% | Percent Growth (SR; Log10 Concentration −6.0): 60% | Percent Growth (SR; Log10 Concentration −7.0): 87% | Percent Growth (SR; Log10 Concentration −8.0): 94% | GI50 (TK-10): 2600 nM | TGI (TK-10): 6.55E−6 | Percent Growth (TK-10; Log10 Concentration −4.0): −96% | Percent Growth (TK-10; Log10 Concentration −5.0): −23% | Percent Growth (TK-10; Log10 Concentration −6.0): 102% | Percent Growth (TK-10; Log10 Concentration −7.0): 95% | Percent Growth (TK-10; Log10 Concentration −8.0): 94% | GI50 (HT29): 3300 nM | TGI (HT29): 1.05E−5 | Percent Growth (HT29; Log10 Concentration −4.0): −84% | Percent Growth (HT29; Log10 Concentration −5.0): 2% | Percent Growth (HT29; Log10 Concentration −6.0): 102% | Percent Growth (HT29; Log10 Concentration −7.0): 101% | Percent Growth (HT29; Log10 Concentration −8.0): 97% | GI50 (NCI-H23): 2590 nM | TGI (NCI-H23): 8.51E−6 | Percent Growth (NCI-H23; Log10 Concentration −4.0): −70% | Percent Growth (NCI-H23; Log10 Concentration −5.0): −7% | Percent Growth (NCI-H23; Log10 Concentration −6.0): 98% | Percent Growth (NCI-H23; Log10 Concentration −7.0): 96% | Percent Growth (NCI-H23; Log10 Concentration −8.0): 93% | GI50 (PC-3): 10800 nM | TGI (PC-3): 2.41E−5 | Percent Growth (PC-3; Log10 Concentration −4.0): −89% | Percent Growth (PC-3; Log10 Concentration −5.0): 55% | Percent Growth (PC-3; Log10 Concentration −6.0): 97% | Percent Growth (PC-3; Log10 Concentration −7.0): 99% | Percent Growth (PC-3; Log10 Concentration −8.0): 101% | GI50 (MDA-MB-468): 578 nM | TGI (MDA-MB-468): 2.65E−6 | Percent Growth (MDA-MB-468; Log10 Concentration −4.0): −75% | Percent Growth (MDA-MB-468; Log10 Concentration −5.0): −48% | Percent Growth (MDA-MB-468; Log10 Concentration −6.0): 36% | Percent Growth (MDA-MB-468; Log10 Concentration −7.0): 96% | Percent Growth (MDA-MB-468; Log10 Concentration −8.0): 88% | GI50 (UACC-257): 2340 nM | TGI (UACC-257): 1.02E−5 | Percent Growth (UACC-257; Log10 Concentration −4.0): −90% | Percent Growth (UACC-257; Log10 Concentration −5.0): 1% | Percent Growth (UACC-257; Log10 Concentration −6.0): 79% | Percent Growth (UACC-257; Log10 Concentration −7.0): 96% | Percent Growth (UACC-257; Log10 Concentration −8.0): 94% | TGI (U251): 2.66E−5 | Percent Growth (U251; Log10 Concentration −4.0): −99% | Percent Growth (U251; Log10 Concentration −5.0): 73% | Percent Growth (U251; Log10 Concentration −6.0): 92% | Percent Growth (U251; Log10 Concentration −7.0): 96% | Percent Growth (U251; Log10 Concentration −8.0): 96%
